# In patent publication US20150190369A1, “QUERCETIN-3-GLUCOSIDE AND USES THEREOF” (priority 2012, published 2015):
# What was measured:
# PCSK9 mRNA = test: Quantitative RT-PCR for PCSK9 mRNA in Huh7 cells; assay type: cell-based, human; conditions: Huh7, 24 h, highest Q3G concentration tested (0 to 10 μM)
# Protocol: At passage, Huh7 cells were routinely seeded at sub-confluence (˜10^6 cells/10-cm dish) in Dulbecco's modified Eagle's medium (DMEM) containing 10% fetal bovine serum (FBS) or LPDS (for experiments) and 50 μg/ml gentamycin. They were incubated overnight at 37° C., in a humidified 5% CO2-95% air atmosphere. Cells were treated or not with Q3G at defined concentrations and for defined lengths of time. Media were collected and centrifuged at 200 g for 5 min to sediment suspended cells; supernatants were collected and supplemented with 0.33 volumes of a 3×-concentrated PIC. Cell monolayers were rinsed with ice-cold phosphate-buffered saline (PBS); they were overlaid with […] the RIPA lysis buffer (50 mM Tris-HCl, pH 8, 150 mM NaCl, 1% NP-40, 0.5% Na-deoxycholate and 0.1% SDS) supplemented with 1× PIC. After 20 min in an ice bath, the lysates were centrifuged at 14,000 g and 4° C. for 20 min, and supernatants were collected. Conditioned media and lysates were stored at −20° C. until analysis.
# Total RNA was extracted using the Qiagen RNeasy extraction kit. It was reverse transcribed into cDNA using random hexameric primers and the Superscript II RNase H-Reverse Transcriptase. […]
# (§1) Standard curves were established using varying amounts of purified and quantified cDNA amplicons of each mRNA. […]
# SREBP-2 mRNA = test: Quantitative RT-PCR for proSREBP-2 mRNA in Huh7 cells; assay type: cell-based, human; conditions: Huh7, 24 h, 5 μM Q3G
# Protocol: (§2) FIGS. 9A and 9B are graphs illustrating the proSREBPs-2 mRNA and SREBP-2-related protein levels for cells exposed to Q3G. Cells were incubated for 24 h in medium 5 μM Q3G. FIG. 9A illustrates the results for quantitative RT-PCR for proSREBPs-2 mRNA levels. Values are the means of triplicate experiments±SEM. FIG. 9B illustrates the results for semi-quantitative immunoblotting for cellular SREBP-2-related protein. Mat/Prec values, the averages of two experiments, represent density ratios of the 65-kDa SREBP over the 158-kDa proSREBPs after normalization for β-actin.
# (§3) At passage, Huh7 cells were routinely seeded at sub-confluence (˜10^6 cells/10-cm dish) in Dulbecco's modified Eagle's medium (DMEM) containing 10% fetal bovine serum (FBS) or LPDS (for experiments) and 50 μg/ml gentamycin. They were incubated overnight at 37° C., in a humidified 5% CO2-95% air atmosphere. Cells were treated or not with Q3G at defined concentrations and for defined lengths of time. Media were collected and centrifuged at 200 g for 5 min to sediment suspended cells; supernatants were collected and supplemented with 0.33 volumes of a 3×-concentrated PIC. […]
# as §1
# SREBP-2 = test: Immunoblotting for SREBP-2-related proteins (proSREBP-2 proteolytic activation) in Huh7 cells; assay type: cell-based, human; conditions: Huh7, 24 h, 5 μM Q3G, normalized for β-actin
# Protocol: as §2, with “Mat/Prec values, the averages of two experiments, represent density ratios of the 65-kDa SREBP over the 158-kDa proSREBPs after normalization for β-actin.” left out
# as §3
# (§4) Cell lysates were fractionated by SDS-PAGE and electrophoretically transferred onto a polyvinylidene fluoride membrane. […] The signal was captured on X-ray film and immunoreactive bands analyzed by densitometry on a Syngene's ChemiGenius^2XE Bio Imaging System (Cambridge, Mass.) within the dynamic range of the instrument. […]
# HNF-1α = test: Immunoblotting for HNF-1α in cells exposed to Q3G; assay type: cell-based; conditions: cells incubated 24 h with Q3G
# Protocol: FIG. 3 is a graph illustrating hepatocyte nuclear factor la (HNF-1α) expression in cells on exposure to Q3G. Cells were incubated for 24 h in medium containing the indicated concentrations of Q3G. Cells lysates were analyzed by semi-quantitative immunoblotting for the levels of HNF-1α.
# Cell lysates were fractionated by SDS-PAGE and electrophoretically transferred onto a polyvinylidene fluoride membrane. The membrane was incubated with a goat antihuman LDLR, rabbit anti-PCSK9, or rabbit anti-SREBP-2 polyclonal antibody at 1:1000, 1:1500, and 1:200 dilutions, respectively, and then with a HRP-conjugated heterospecific secondary antibody against the primary Igs at a 1:2000 dilution. It was probed for HRP reaction using the Western Lightning Chemiluminescence Reagent Plus a chemiluminescence-based revelation kit. The signal was captured on X-ray film and immunoreactive bands analyzed by densitometry on a Syngene's ChemiGenius^2XE Bio Imaging System (Cambridge, Mass.) within the dynamic range of the instrument. The membrane was stripped and reprobed with the anti-β-actin monoclonal primary antibody at 1:20,000 dilution and HRP-conjugated rabbit anti-mouse IgG secondary antibody at a 1:5000 dilution. The densitometric values of β-actin bands were using for normalization of experimental samples.
# ABCA1 = test: Immunoblotting for ABCA1 in MIN6 β-cells; assay type: cell-based, mouse; conditions: MIN6, Q3G-treated
# Protocol: The corresponding photographs of the immunoblotting results are also shown. MIN6 cells were incubated for 24 h in the presence of 16 μM Q3G. Cell lysates were analyzed by semi-quantitative immunoblotting using different antibodies successively.
# Mouse insulinoma MIN6 cells were cultured in a 5% CO2-95% air atmosphere at 37° C. in DMEM medium containing 10% heat-inactivated fetal bovine serum, 1 mM Na-pyruvate, 2 mM L-glutamine, 25 mM D-glucose, and 28 μM β-mercaptoethanol. Q3G at a specific final concentration was supplemented to the culture medium and incubation was conducted for a selected length of time. Media were collected, spun at 600 g to sediment suspended cells, supplemented with 0.5 volumes of 3×RIPA-PIC (1×: 50 mM Tris-HCl, pH 8, 150 mM NaCl, 1% NP-40, 0.5% Na-deoxycholate and 0.1% SDS and PIC). Cells were lysed in 1×RIPA-PIC for immuno-blotting, or in RNA extraction buffer for qRT-PCR.
# as §4
# [1] = pigs, meal supplement; cited from earlier work
smiles,measurement,setting,value
"O=c1c(O[C@@H]2O[C@H](CO)[C@@H](O)[C@H](O)[C@H]2O)c(-c2ccc(O)c(O)c2)oc2cc(O)cc(O)c12 [Q3G, quercetin-3-O-β-D-glucoside]",decrease of PCSK9 mRNA levels,PCSK9 mRNA,one-third
same,effect on level of SREBP-2 mRNA,SREBP-2 mRNA,no effect
same,increase of ratio of 65-kDa nuclear SREBP-2 over its 148-kDa ER precursor,SREBP-2,up to 4 fold
same,level of HNF-1α,HNF-1α,does not change
same,relative amount of ABCA1 protein compared with mRNA,ABCA1,in concordance with the relative amounts of mRNA
same,quercetin bioavailability versus quercetin aglycone and rutin,[1],significantly greater
